In patent publication US20160090351A1, “INHIBITORS OF DEUBIQUITINATING PROTEASES” (BRANDEIS UNIVERSITY, priority 2013, published 2016):

Experiments:
Type in all cases: cell-based, human
Bcr-Abl kinase = assay: Bcr-Abl levels in K562 cells by immunoblotting; conditions: for levels of Bcr-Abl: 50 μM, 2 h
Description: K562 cells are from a myelogenous leukemia line that expresses Bcr-Abl kinase. A. K562 cells were treated with TU50 for 24 hours after which time the cells were treated with annexin V-FITC and propidium iodide. Cells were then analyzed by flow cytometry. Cells showing only annexin V-FITC were considered apoptotic whereas cells showing both annexin V-FITC and propidium iodide were considered necrotic. N=2. All points show a significant difference to the vehicle (DMSO) with p<0.05. […] All points show a significant difference to vehicle (DMSO) with p<0.02. C. Same as A, but the incubation period was 8 hours. N>2. All points show a significant difference to DMSO with p<0.02. D, K562 cells were treated with TU50 for 4 hours. Samples were analyzed by SDS-PAGE and immunoblotting with anti-Bcr-Abl antibody. E. Quantitation of blot in D. The signal for tubulin was used to normalize the Bcr-Abl signal. N=3.
(§1) FIG. 34 depicts data showing that diphenylcarbonates cause the accumulation of HMW-Ub and reduce the levels of Bcr-Abl in K562 cells. A. K562 cells were treated with diphenyl carbonates (50 μM) for 2 h and then assayed for the accumulation of K48-linked Ub. B. As in A, but Bcr-Abl was measured by immunoblotting with anti-Abl antibodies. C. K562 cells were treated with C17 (50 μM) in the presence and absence of bortezomib (6 μM) for 4 hours and Bcr-Abl was measured by immunblotting with anti-Abl antibodies. D. Quantitation of blot in C. Significance: DMSO relative to C17 and bortezomib p=0.002; DMSO relative to C17, p=0.03. E. K562 cells were treated with C15 for 4 hours then analyzed for SMAD4 monoubiquitination by western blot. F. Quantitation of blots in A. (N=3). See also FIG. 40.
(§2) FIG. 40 depicts data showing that diphenyl carbonates induce the degradation of Bcr-Abl kinase. A. K562 cells were treated with C17 for 24 h (1 dose) then analyzed for Bcr-Abl expression by western blot with anti-Abl antibody. B. Quantitation of blots in A normalized to actin. C. K562 cells were treated with C17 for 24 h then the amount of cells in G1 and apoptosis were recorded (N=3). D. K562 were treated with C15 for 4 h then analyzed for Bcr-Abl expression using western blot. E. Quantitation of Bcr-Abl from D normalized to tubulin (N=4). F. Same K562 lysates were separately analyzed for K63-linked ubiquitin. G. Quantitation of blots in F (N=4). Differences between all bars is significant p<0.01). H. K562 cells were treated with C15 for 24 h after which time cells were fixed in ethanol, treated with propodium iodide/RNAse then analyzed by FACS. Viability was calculated using forward and side scatter. I. Same experiment as H but red fluorescence was measured to determine DNA content
(§3) Transfected cells were harvested 1.5 days post transfection. […] Typically clarified lysate was analyzed.

K562 cells = assay: accumulation of K48- and K63-linked Ub in K562 cells; conditions: for accumulation of K48-linked HMW-Ub: 50 μM, 2 h
Description: as §1, §2, §3

[1] = tested on: ubiquitin-proteasome system; assay: GFP-G76V-Ub assay in HEK 293T cells; conditions: diphenyl carbonates 100 μM, bortezomib 20 μM, G5 2 μM
Description: (§4) FIG. 32 depicts data showing that diphenyl carbonates inhibit DUBs in HEK 293T cells. A. Viability of HEK 293T cells assessed by the propidium iodide exclusion method: diphenyl carbonate (100 μM), bortezomib (V, 20 μM) and G5 (2 μM). N≧3, mean+/−s.d. B. HEK 293T cells were treated with the stated compounds (50 μM) for 2 h and then assayed for the accumulation of K48-linked Ub species. C. As in A, but K63-linked Ub was assayed. D. HEK 293T cells were treated with C14, C15, C17, C18 (100 μM) or DMSO for 2 hours, then harvested, lysed and treated with HA-Ub-VS. After 30 min, lysates were analyzed by SDS-PAGE and probed for HA, tubulin and actin. An intervening lane was removed for clarity. E. HEK 293T cells expressing Ub-G76V-GFP were treated with diphenyl carbonates (100 μM), bortezomib (20 μM) and G5 (2 μM). […] N>3, Mean+/−s.d. See also FIG. 39.
FACS was carried out on a […] FACS-Calibur. For HEK 293T and K562, cells were resuspended by repeated pipetting/agitation of the incubation media, followed by dilution into PBS. For Cos-1, MCF-7, and CHO cells, media was removed and trypsin was added. Harvested cells were placed in FACS buffer (0.5% FBS in PBS with 3 μg/mL propidium iodide) 30 s prior to analysis. All data were analyzed using FlowJo V10, from TreeStar (Ashland, Oreg.). Approximately 2500 cells were sorted per replicate. Cells were sorted by propidium iodide dye exclusion to give a “viable population”. GFP positive cells within this group were identified relative to untransfected controls. Then the geometric mean of the whole GFP positive population within the viable population was calculated. Typical transfection efficiencies for G76V ubiquitin were 60-70% for both Cos-1 and HEK 293T and 25-40% for CHO cells, based on GFP positive cells.
The activity of the diphenylcarbonates in the GFP-G76V-Ub assay, which monitors flux through the ubiquitin-proteasome system, was also investigated. The G76V mutation creates an unstable Ub fusion protein that is degraded in a proteasome dependent process. GFP fluorescence increased when HEK 293T cells expressing GFP-G76V-Ub were treated with the proteasome inhibitor bortezomib and decreased upon treatment with G5 (FIG. 39). This decrease has been attributed to increased flux through the ubiquitin-proteasome system triggered by the accumulation of HMW-Ub. […] Perhaps the inability of the diphenylcarbonates to inhibit UCH-L1/3 accounts for the stability of GFP-G76V-Ub. This selectivity might also explain the low cytoxicity of these compounds relative to G5.

HEK 293T cells = assay: accumulation of K48- and K63-linked Ub species in HEK 293T cells; conditions: 50 μM, 2 h
Description: as §4, with “39. […]” for “39.”

Row | Compound | levels of Bcr-Abl (Bcr-Abl kinase) | accumulation of K48-linked HMW-Ub (K562 cells) | GFP fluorescence [1] | accumulation of K48-linked HMW-Ub (HEK 293T cells) | accumulation of K63-linked Ub chains (HEK 293T cells) | Bcr-Abl, dose response (Bcr-Abl kinase; C15 4 h) | accumulation of K63-linked ubiquitin (K562 cells; C15 4 h)
1 | NCc1ccc(OC(=O)Oc2ccc(Cl)cc2)cc1 [Compound C14, 4-(aminomethyl)phenyl(4-chlorophenol)carbonate] | caused a decrease in the levels of Bcr-Abl | caused the accumulation of K48-linked HMW-Ub in K562 cells | no change in fluorescence was observed | K48-linked HMW-Ub species accumulated | increase the accumulation of K63-linked Ub chains | – | –
2 | NCc1ccc(OC(=O)Oc2ccc3ccccc3c2)cc1 [Compound C17] | caused a decrease in the levels of Bcr-Abl | caused the accumulation of K48-linked HMW-Ub in K562 cells | no change in fluorescence was observed | K48-linked HMW-Ub species accumulated | increase the accumulation of K63-linked Ub chains | – | –
3 | NCc1ccc(OC(=O)Oc2cccc3ccccc23)cc1 [Compound C18] | caused a decrease in the levels of Bcr-Abl | caused the accumulation of K48-linked HMW-Ub in K562 cells | no change in fluorescence was observed | K48-linked HMW-Ub species accumulated | increase the accumulation of K63-linked Ub chains | – | –
4 | O=C1/C(=C/c2ccc([N+](=O)[O-])cc2)CS(=O)(=O)C/C1=C\c1ccc([N+](=O)[O-])cc1 [Compound G5, reference compound] | – | – | decreased | – | – | – | –
5 | NCc1ccc(OC(=O)Oc2ccc(Br)cc2)cc1 [Compound C15, 4-(aminomethyl)phenyl(4-bromophenyl)carbonate] | caused a decrease in the levels of Bcr-Abl | caused the accumulation of K48-linked HMW-Ub in K562 cells | no change in fluorescence was observed | K48-linked HMW-Ub species accumulated | increase the accumulation of K63-linked Ub chains | dose dependent decrease in Bcr-Abl | caused the accumulation of K63-linked ubiquitin
